This is an account of results in PubChem BioAssay (NCI).

Test systems include COLO 205 colon; OVCAR-8 ovarian; IGROV1 ovarian; BT-549 breast; SK-MEL-28 melanoma; HCC-2998 colon; U251 CNS; CAKI-1 renal; TK-10 renal; CCRF-CEM leukemia.
Holding throughout (assay): DTP human tumour cell line panel, 48 h

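96-well plates; 48 h exposure; 5 concentrations. Endpoints by linear interpolation between flanking doses. Not reached: highest tested concentration assigned. Here, GI50 denotes the concentration required for 50% inhibition of growth. TGI: concentration producing complete growth inhibition.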 Some results are limits rather than exact numbers.

In the case of `N#Cc1ccc(OC(=O)Nc2ccc(Cl)c(Cl)c2)cc1`, the GI50 was 3.79 µM in the experiment with COLO 205 colon; 3.3 µM in the experiment on OVCAR-8 ovarian; 4.04 µM in the experiment on IGROV1 ovarian; 9.93 µM with BT-549 breast; 5.53 µM in the experiment on SK-MEL-28 melanoma; 4.79 µM in the experiment with HCC-2998 colon. Besides, the GI50 with U251 CNS was 3.04 µM; in the experiment on CAKI-1 renal it was 3.4 µM; in the experiment on TK-10 renal it was 3.85 µM; in the experiment with CCRF-CEM leukemia, 3.08 µM. For the same compound, the TGI in the experiment with COLO 205 colon was 11.4 µM; with OVCAR-8 ovarian, 44.8 µM; with IGROV1 ovarian, above 100 µM; with BT-549 breast, 44.2 µM; in the experiment on SK-MEL-28 melanoma, above 100 µM; in the experiment on HCC-2998 colon, 26.5 µM. The TGI with U251 CNS was 23.2 µM; in the experiment on CAKI-1 renal it was 18.2 µM; in the experiment with TK-10 renal, 33.9 µM; in the experiment with CCRF-CEM leukemia it was 16.1 µM.
Turning to `CC/C=C/C/C=C/C/C=C/C/C=C/C/C=C/C/C=C/CCC(=O)Nc1ccn([C@@H]2O[C@H](CO)[C@@H](O)C2(F)F)c(=O)n1`, the GI50 in the experiment on COLO 205 colon was 0.187 µM; with OVCAR-8 ovarian it was 0.0345 µM; in the experiment on IGROV1 ovarian it was 4.07 µM; with BT-549 breast it was 0.681 µM; with SK-MEL-28 melanoma, 11.5 µM; in the experiment on HCC-2998 colon it was 14.9 µM. The GI50 with U251 CNS was 0.0331 µM; with CAKI-1 renal, 0.0341 µM; in the experiment on TK-10 renal, 39.1 µM; in the experiment on CCRF-CEM leukemia, 0.0537 µM. Moreover, the TGI in the experiment on COLO 205 colon is 19.1 µM; with OVCAR-8 ovarian, 9.55 µM; in the experiment on IGROV1 ovarian, 30.7 µM; in the experiment with BT-549 breast, 19.8 µM; in the experiment on SK-MEL-28 melanoma, 25.8 µM; in the experiment with HCC-2998 colon it was above 64.4 µM. Further, the TGI in the experiment with U251 CNS was 18.2 µM; in the experiment with CAKI-1 renal it was 14.8 µM; with TK-10 renal, above 66.5 µM; with CCRF-CEM leukemia it was 15.1 µM.
In the case of `O=C(OCc1ccc2c(Cl)cc(Cl)c(O)c2n1)N1CCN(C(=O)c2cc3cc(F)ccc3[nH]2)CC1`, the GI50 was 38.7 µM in the experiment on COLO 205 colon; 0.551 µM with OVCAR-8 ovarian; 1.99 µM with IGROV1 ovarian; 1.17 µM in the experiment on BT-549 breast; 87 µM in the experiment on SK-MEL-28 melanoma; 3.95 µM in the experiment with HCC-2998 colon. Moreover, the GI50 in the experiment with U251 CNS is 2.55 µM; in the experiment with CAKI-1 renal, 0.905 µM; with TK-10 renal it was 99.5 µM; in the experiment on CCRF-CEM leukemia it was 0.876 µM. The TGI in the experiment with COLO 205 colon was above 100 µM; with OVCAR-8 ovarian, above 100 µM; with IGROV1 ovarian it was above 100 µM; with BT-549 breast it was above 24 µM; in the experiment on SK-MEL-28 melanoma, above 100 µM; in the experiment with HCC-2998 colon, above 94.6 µM. Further, the TGI in the experiment with U251 CNS, with CAKI-1 renal, with TK-10 renal and with CCRF-CEM leukemia was above 100 µM throughout.
`NC(=S)N/N=C/c1cc(-c2cccc(N)c2)ccn1`: the GI50 was 3.41 µM in the experiment with COLO 205 colon; 1.66 µM with OVCAR-8 ovarian; 3.05 µM with IGROV1 ovarian; 3.52 µM in the experiment on BT-549 breast; 4.35 µM in the experiment with SK-MEL-28 melanoma; 2.2 µM with HCC-2998 colon. In addition, the GI50 in the experiment on U251 CNS is 0.783 µM; with CAKI-1 renal it was 0.972 µM; with TK-10 renal it was 1.2 µM; in the experiment on CCRF-CEM leukemia, 0.674 µM. In addition, the TGI in the experiment with COLO 205 colon was above 100 µM; in the experiment with OVCAR-8 ovarian it was above 67.9 µM; in the experiment with IGROV1 ovarian it was above 24.5 µM; in the experiment on BT-549 breast, above 100 µM; in the experiment with SK-MEL-28 melanoma, above 100 µM; in the experiment with HCC-2998 colon, above 43.5 µM. Besides, the TGI in the experiment on U251 CNS is above 38.8 µM; in the experiment on CAKI-1 renal, 10.3 µM; in the experiment on TK-10 renal, 44 µM; in the experiment with CCRF-CEM leukemia it was above 36.1 µM.
As for `Cn1c(=O)c2c(ncn2CC(=O)Nc2ccc(-c3ccccc3)nn2)n(C)c1=O`, the GI50 with COLO 205 colon, with OVCAR-8 ovarian, with IGROV1 ovarian, with BT-549 breast, with SK-MEL-28 melanoma and with HCC-2998 colon was above 100 µM throughout. Besides, the GI50 in the experiment with U251 CNS, in the experiment with CAKI-1 renal, in the experiment on TK-10 renal and in the experiment on CCRF-CEM leukemia was above 100 µM throughout. The TGI in the experiment with COLO 205 colon, with OVCAR-8 ovarian, in the experiment on IGROV1 ovarian, with BT-549 breast, with SK-MEL-28 melanoma and in the experiment with HCC-2998 colon was above 100 µM each time. Besides, the TGI with U251 CNS, in the experiment on CAKI-1 renal, in the experiment on TK-10 renal and in the experiment with CCRF-CEM leukemia was above 100 µM in each case.
On to `O=c1oc2ccc(Br)cc2c(=O)n1-c1ccc(F)cc1F`, for which the GI50 in the experiment with COLO 205 colon was 3.92 µM; in the experiment on OVCAR-8 ovarian it was 2.81 µM; in the experiment on IGROV1 ovarian, 1.94 µM; with BT-549 breast, 1.79 µM; in the experiment on SK-MEL-28 melanoma, 1.04 µM; with HCC-2998 colon it was 3.54 µM. For the same compound, the GI50 is 2.51 µM in the experiment on U251 CNS, 1.72 µM in the experiment with CAKI-1 renal, 4.53 µM in the experiment on TK-10 renal and 3.91 µM in the experiment with CCRF-CEM leukemia. Besides, the TGI in the experiment with COLO 205 colon was 16.4 µM; with OVCAR-8 ovarian, 24.2 µM; with IGROV1 ovarian, 24.8 µM; in the experiment with BT-549 breast, 5.5 µM; with SK-MEL-28 melanoma, 5.8 µM; in the experiment with HCC-2998 colon it was 18.4 µM. Further, the TGI in the experiment on U251 CNS was 31.5 µM; in the experiment on CAKI-1 renal, 6.1 µM; in the experiment with TK-10 renal, 19.2 µM; in the experiment with CCRF-CEM leukemia, above 100 µM.
As to `CN1CCN(c2ccc(Nc3ncc4cc(C#N)c(=O)n(C5CCCC5)c4n3)cc2)CC1`, the GI50 in the experiment with COLO 205 colon is 0.797 µM; in the experiment on OVCAR-8 ovarian, 3.18 µM; with IGROV1 ovarian it was 0.605 µM; in the experiment with BT-549 breast, 2.65 µM; in the experiment on SK-MEL-28 melanoma, 3.54 µM; in the experiment on HCC-2998 colon it was 2.8 µM. Moreover, the GI50 with U251 CNS is 1.74 µM; in the experiment with CAKI-1 renal, 0.346 µM; in the experiment with TK-10 renal, 0.82 µM; in the experiment on CCRF-CEM leukemia, 0.597 µM. The TGI was above 100 µM in the experiment with COLO 205 colon; above 47.9 µM in the experiment with OVCAR-8 ovarian; above 23.3 µM with IGROV1 ovarian; 7.58 µM with BT-549 breast; above 100 µM in the experiment with SK-MEL-28 melanoma; above 100 µM in the experiment on HCC-2998 colon. Further, the TGI is above 100 µM with U251 CNS, 17.3 µM in the experiment on CAKI-1 renal, above 24.2 µM with TK-10 renal and above 20.9 µM in the experiment on CCRF-CEM leukemia.

What is called GI50 is the concentration giving 50% growth inhibition. The TGI is the concentration at which net growth stops. Lower therefore signals greater sensitivity of the cells.
